ChEMBL document CHEMBL1201862, “PubChem BioAssay data set” (2004)
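Exposure lasted 48 hours, with cells grown in 96-well plates and compounds tested at five concentrations. GI50 marks 50% less growth.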 Calls of active or inactive are those of the source. Rule as the data show it: active = GI50 up to about 1.1 µM and inactive = higher.

What was measured:
Experiment in all cases: NCI tumour cell line growth inhibition, 48 h
786-0 = system: 786-0
A498 = system: A498
A549 = system: A549
ACHN = system: ACHN
BT-549 = system: BT-549
CAKI-1 = system: CAKI-1
COLO 205 = system: COLO 205
DU-145 = system: DU-145
EKVX = system: EKVX
HCC 2998 = system: HCC 2998
HCT-116 = system: HCT-116
HCT-15 = system: HCT-15
HOP-62 = system: HOP-62
HOP-92 = system: HOP-92
HT-29 = system: HT-29
Hs-578T = system: Hs-578T
IGROV-1 = system: IGROV-1
K562 = system: K562
KM12 = system: KM12
LOX IMVI = system: LOX IMVI
M14 = system: M14
MCF7 = system: MCF7
MDA-MB-231 = system: MDA-MB-231
MDA-MB-435 = system: MDA-MB-435
MDA-N = system: MDA-N
MOLT-4 = system: MOLT-4
Malme-3M = system: Malme-3M
NCI-H226 = system: NCI-H226
NCI-H23 = system: NCI-H23
NCI-H460 = system: NCI-H460
NCI-H522 = system: NCI-H522
NCI/ADR-RES = system: NCI/ADR-RES
OVCAR-3 = system: OVCAR-3
OVCAR-4 = system: OVCAR-4
OVCAR-5 = system: OVCAR-5
OVCAR-8 = system: OVCAR-8
PC-3 = system: PC-3
RPMI-8226 = system: RPMI-8226
RXF 393 = system: RXF 393
SF-268 = system: SF-268
SF-295 = system: SF-295
SF-539 = system: SF-539
SK-MEL-28 = system: SK-MEL-28
SK-MEL-2 = system: SK-MEL-2
SK-MEL-5 = system: SK-MEL-5
SK-OV-3 = system: SK-OV-3
SN12C = system: SN12C
SNB-19 = system: SNB-19
SR = system: SR
T47D = system: T47D
TK-10 = system: TK-10
U-251 = system: U-251
UACC-257 = system: UACC-257
UACC-62 = system: UACC-62
UO-31 = system: UO-31
SNB-75 = system: SNB-75
SW-620 = system: SW-620
CCRF-CEM = system: CCRF-CEM

## O=C(c1ccccc1)C1C(c2ccccc2[N+](=O)[O-])N1C1CCCCC1 (stereo not drawn)
786-0
  GI50: 1.99 µM (inactive)
A498
  GI50: 16.7 µM (inactive)
A549
  GI50: 16.6 µM (inactive)
ACHN
  GI50: 1.94 µM (inactive)
BT-549
  GI50: 11.6 µM (inactive)
CAKI-1
  GI50: 3.44 µM (inactive)
COLO 205
  GI50: 7.26 µM (inactive)
DU-145
  GI50: 10.1 µM (inactive)
EKVX
  GI50: 13.7 µM (inactive)
HCC 2998
  GI50: 6.79 µM (inactive)
HCT-116
  GI50: 1.8 µM (inactive)
HCT-15
  GI50: 3.52 µM
HOP-62
  GI50: 15.1 µM (inactive)
HOP-92
  GI50: 3.5 µM (inactive)
HT-29
  GI50: 4.1 µM (inactive)
Hs-578T
  GI50: 10.3 µM (inactive)
IGROV-1
  GI50: 4.25 µM (inactive)
K562
  GI50: 2.79 µM (inactive)
KM12
  GI50: 11.9 µM (inactive)
LOX IMVI
  GI50: 2.1 µM (inactive)
M14
  GI50: 9.42 µM (inactive)
MCF7
  GI50: 3.65 µM (inactive)
MDA-MB-231
  GI50: 7.69 µM (inactive)
MDA-MB-435
  GI50: 2.6 µM (inactive)
MDA-N
  GI50: 2.06 µM (inactive)
MOLT-4
  GI50: 2.43 µM (inactive)
Malme-3M
  GI50: 12.4 µM (inactive)
NCI-H226
  GI50: 17 µM (inactive)
NCI-H23
  GI50: 16.4 µM (inactive)
NCI-H460
  GI50: 9.2 µM (inactive)
NCI-H522
  GI50: 2.11 µM (inactive)
NCI/ADR-RES
  GI50: 6.05 µM (inactive)
OVCAR-3
  GI50: 2.5 µM (inactive)
OVCAR-4
  GI50: 9.33 µM (inactive)
OVCAR-5
  GI50: 17 µM (inactive)
OVCAR-8
  GI50: 1.86 µM (inactive)
PC-3
  GI50: 3.95 µM (inactive)
RPMI-8226
  GI50: 1.72 µM (inactive)
RXF 393
  GI50: 4.27 µM (inactive)
SF-268
  GI50: 9.2 µM (inactive)
SF-295
  GI50: 15.4 µM (inactive)
SF-539
  GI50: 2.1 µM (inactive)
SK-MEL-28
  GI50: > 42.3 µM (inactive)
SK-MEL-2
  GI50: 5.21 µM (inactive)
SK-MEL-5
  GI50: 11 µM (inactive)
SK-OV-3
  GI50: 22.1 µM (inactive)
SN12C
  GI50: 4.39 µM (inactive)
SNB-19
  GI50: 16.3 µM (inactive)
SR
  GI50: 0.634 µM (active)
T47D
  GI50: 2.51 µM (inactive)
TK-10
  GI50: 2.74 µM (inactive)
U-251
  GI50: 6.01 µM (inactive)
UACC-257
  GI50: 3.21 µM (inactive)
UACC-62
  GI50: 7.4 µM (inactive)
UO-31
  GI50: 6.61 µM (inactive)

## COCN(CCC1=CCCCC1)C(=O)OC
786-0
  GI50: > 100 µM (inactive)
A498
  GI50: > 100 µM (inactive)
A549
  GI50: > 100 µM (inactive)
ACHN
  GI50: > 100 µM (inactive)
BT-549
  GI50: > 100 µM (inactive)
CAKI-1
  GI50: > 100 µM (inactive)
COLO 205
  GI50: > 100 µM (inactive)
DU-145
  GI50: 49.8 µM (inactive)
EKVX
  GI50: > 100 µM (inactive)
HCC 2998
  GI50: > 100 µM (inactive)
HCT-116
  GI50: 41.4 µM (inactive)
HCT-15
  GI50: > 100 µM
HOP-62
  GI50: > 100 µM (inactive)
HOP-92
  GI50: > 100 µM (inactive)
HT-29
  GI50: > 100 µM (inactive)
Hs-578T
  GI50: > 100 µM (inactive)
IGROV-1
  GI50: > 100 µM (inactive)
K562
  GI50: 61.5 µM (inactive)
KM12
  GI50: > 100 µM (inactive)
M14
  GI50: > 100 µM (inactive)
MCF7
  GI50: 43.1 µM (inactive)
MDA-MB-231
  GI50: > 100 µM (inactive)
MDA-MB-435
  GI50: > 100 µM (inactive)
MDA-N
  GI50: > 100 µM (inactive)
MOLT-4
  GI50: > 100 µM (inactive)
Malme-3M
  GI50: > 100 µM (inactive)
NCI-H23
  GI50: 51.6 µM (inactive)
NCI-H460
  GI50: 29.9 µM (inactive)
NCI-H522
  GI50: 38.1 µM (inactive)
NCI/ADR-RES
  GI50: > 100 µM (inactive)
OVCAR-3
  GI50: 76.7 µM (inactive)
OVCAR-4
  GI50: > 100 µM (inactive)
OVCAR-5
  GI50: > 100 µM (inactive)
OVCAR-8
  GI50: > 100 µM (inactive)
PC-3
  GI50: > 100 µM (inactive)
RPMI-8226
  GI50: > 100 µM (inactive)
RXF 393
  GI50: > 100 µM (inactive)
SF-268
  GI50: > 100 µM (inactive)
SF-295
  GI50: 28.2 µM (inactive)
SK-MEL-28
  GI50: > 100 µM (inactive)
SK-MEL-2
  GI50: > 100 µM (inactive)
SK-MEL-5
  GI50: 81.7 µM (inactive)
SK-OV-3
  GI50: > 100 µM (inactive)
SNB-19
  GI50: > 100 µM (inactive)
SNB-75
  GI50: > 100 µM (inactive)
SR
  GI50: > 100 µM (inactive)
SW-620
  GI50: > 100 µM (inactive)
T47D
  GI50: 89.1 µM (inactive)
TK-10
  GI50: > 100 µM (inactive)
U-251
  GI50: > 100 µM (inactive)
UACC-257
  GI50: > 100 µM (inactive)
UACC-62
  GI50: > 100 µM (inactive)
UO-31
  GI50: 46.3 µM (inactive)

## CCn1c(=O)ccc2ccc(N(CCO)CCO)nc21
786-0
  GI50: > 100 µM (inactive)
A498
  GI50: > 100 µM (inactive)
A549
  GI50: > 100 µM (inactive)
ACHN
  GI50: > 100 µM (inactive)
BT-549
  GI50: > 100 µM (inactive)
CAKI-1
  GI50: > 100 µM (inactive)
CCRF-CEM
  GI50: > 100 µM (inactive)
COLO 205
  GI50: > 100 µM (inactive)
DU-145
  GI50: > 100 µM (inactive)
EKVX
  GI50: > 100 µM (inactive)
HCC 2998
  GI50: > 100 µM (inactive)
HCT-116
  GI50: > 100 µM (inactive)
HCT-15
  GI50: > 100 µM
HOP-62
  GI50: > 100 µM (inactive)
HT-29
  GI50: > 100 µM (inactive)
Hs-578T
  GI50: > 100 µM (inactive)
IGROV-1
  GI50: > 100 µM (inactive)
K562
  GI50: > 100 µM (inactive)
KM12
  GI50: > 100 µM (inactive)
M14
  GI50: > 100 µM (inactive)
MCF7
  GI50: > 100 µM (inactive)
MDA-MB-231
  GI50: > 100 µM (inactive)
MDA-MB-435
  GI50: > 100 µM (inactive)
MDA-N
  GI50: > 100 µM (inactive)
MOLT-4
  GI50: 97.7 µM (inactive)
Malme-3M
  GI50: > 100 µM (inactive)
NCI-H226
  GI50: > 100 µM (inactive)
NCI-H23
  GI50: > 100 µM (inactive)
NCI-H460
  GI50: > 100 µM (inactive)
NCI-H522
  GI50: > 100 µM (inactive)
NCI/ADR-RES
  GI50: > 100 µM (inactive)
OVCAR-3
  GI50: > 100 µM (inactive)
OVCAR-4
  GI50: > 100 µM (inactive)
OVCAR-5
  GI50: > 100 µM (inactive)
OVCAR-8
  GI50: > 100 µM (inactive)
PC-3
  GI50: > 100 µM (inactive)
RPMI-8226
  GI50: > 100 µM (inactive)
RXF 393
  GI50: > 100 µM (inactive)
SF-268
  GI50: > 100 µM (inactive)
SF-295
  GI50: > 100 µM (inactive)
SK-MEL-28
  GI50: > 100 µM (inactive)
SK-MEL-2
  GI50: > 100 µM (inactive)
SK-MEL-5
  GI50: > 100 µM (inactive)
SK-OV-3
  GI50: > 100 µM (inactive)
SN12C
  GI50: > 100 µM (inactive)
SNB-19
  GI50: > 100 µM (inactive)
SNB-75
  GI50: > 100 µM (inactive)
SR
  GI50: > 100 µM (inactive)
SW-620
  GI50: > 100 µM (inactive)
T47D
  GI50: > 100 µM (inactive)
TK-10
  GI50: > 100 µM (inactive)
U-251
  GI50: > 100 µM (inactive)
UACC-257
  GI50: > 100 µM (inactive)
UACC-62
  GI50: > 100 µM (inactive)
UO-31
  GI50: > 100 µM (inactive)
